Test results reported in US10681909B2, “Herbicidal triazoles” (FMC Corporation, priority 2014, dated 2020).

What was measured:
chickweed = assay: Test D preemergence; format: in vivo, Stellaria media; conditions: for Plant response rating: Chickweed: scale 0 to 100
Description: (§1) Seeds of plant species selected from bluegrass (annual bluegrass, Poa annua), blackgrass (Alopecurus myosuroides), canarygrass (Phalaris minor), chickweed (common chickweed, Stellaria media), galium (catchweed bedstraw, Galium aparine), bromegrass, down (downy bromegrass, Bromus tectorum), Russian thistle (Salsola kali), field poppy (Papaver rhoeas), field violet (Viola arvensis), foxtail, green (green foxtail, Setaria viridis), deadnettle (henbit deadnettle, Lamium amplexicaule), ryegrass, Ital. (Italian ryegrass, Lolium multiflorum), kochia (Kochia scoparia), lambsquarters (Chenopodium album), oilseed rape (Brassica napus), pigweed (Amaranthus retroflexus), chamomile (scentless chamomile, Matricaria inodora), speedwell (bird's-eye speedwell, Veronica persica), barley, spring (spring barley, Hordeum vulgare), wheat, spring (spring wheat, Triticum aestivum), buckwheat, wild (wild buckwheat, Polygonum convolvulus), wild mustard (Sinapis arvensis), oat, wild (wild oat, Avena fatua), radish, wild (wild radish, Raphanus raphanistrum), […]), barley, winter (winter barley, Hordeum vulgare), and wheat, winter (winter wheat, Triticum aestivum) were planted into a silt loam soil and treated preemergence with test chemicals formulated in a non-phytotoxic solvent mixture which included a surfactant. At the same time, these species were planted in pots containing Sunshine Redi-Earth® planting medium comprising spaghnum peat moss, vermiculite, starter nutrients and dolomitic limestone and treated with postemergence applications of the test chemicals formulated in the same manner. Plants ranged in height from 2 to 18 cm (1- to 4-leaf stage). Treated plants and controls were maintained in a controlled growth environment for 14 to 21 d after which time all species were compared to controls and visually evaluated. […] A dash (-) response means no test result.

deadnettle = assay: Test D preemergence; format: in vivo, Lamium amplexicaule; conditions: for Plant response rating: Deadnettle: scale 0 to 100
Description: as §1

bluegrass = assay: Test D postemergence; format: in vivo, Poa annua; conditions: scale 0 to 100
Description: as §1

canarygrass = assay: Test D postemergence; format: in vivo, Phalaris minor; conditions: scale 0 to 100
Description: as §1

field poppy = assay: Test D postemergence; format: in vivo, Papaver rhoeas; conditions: scale 0 to 100
Description: as §1

field violet = assay: Test D postemergence; format: in vivo, Viola arvensis; conditions: scale 0 to 100
Description: as §1

oilseed rape = assay: Test D postemergence; format: in vivo, Brassica napus; conditions: scale 0 to 100
Description: as §1

chamomile = assay: Test D postemergence; format: in vivo, Matricaria inodora; conditions: scale 0 to 100
Description: as §1

buckwheat, wild = assay: Test D postemergence; format: in vivo, Polygonum convolvulus; conditions: scale 0 to 100
Description: as §1

wild mustard = assay: Test D postemergence; format: in vivo, Sinapis arvensis; conditions: scale 0 to 100
Description: as §1

radish, wild = assay: Test D postemergence; format: in vivo, Raphanus raphanistrum; conditions: scale 0 to 100
Description: as §1

wheat (winter wheat) = assay: Test C preemergence; format: in vivo, Triticum aestivum; conditions: for Wheat plant response rating (0 to 100): Preemergence, visual rating after 13 to 15 d; for Plant response rating (scale of 0 to 100 where 0 is no effect and 100 is complete control): Wheat, preemergence, 250 g ai/ha
Description: (§2) Seeds of plant species selected from blackgrass (Alopecurus myosuroides), ryegrass, Italian (Italian ryegrass, Lolium multiflorum), wheat (winter wheat, Triticum aestivum), galium (catchweed bedstraw, Galium aparine), corn (Zea mays), crabgrass, large (large crabgrass, Digitaria sanguinalis), foxtail, giant, (giant foxtail, Setaria faberii), johnsongrass (Sorghum halepense), lambsquarters (Chenopodium album), morningglory (Ipomoea coccinea), nutsedge, yellow (yellow nutsedge, Cyperus esculentus), pigweed (Amaranthus retroflexus), ragweed (common ragweed, Ambrosia elatior), soybean (Glycine max), barnyardgrass (Echinochloa crus-galli), oilseed rape (Brassica napus), waterhemp (common waterhemp, Amaranthus rudis), and velvetleaf (Abutilon theophrasti) were planted into a blend of loam soil and sand and treated preemergence with test chemicals formulated in a non-phytotoxic solvent mixture which included a surfactant. At the same time, plants selected from these crop and weed species and also chickweed (common chickweed, Stellaria media), oat, wild (wild oat, Avena fatua), and kochia (Kochia scoparia), were planted in pots containing Sunshine Redi-Earth® planting medium comprising spaghnum peat moss, vermiculite, starter nutrients and dolomitic limestone and treated with postemergence applications of test chemicals formulated in the same manner. Plants ranged in height from 2 to 18 cm (1- to 4-leaf stage) for postemergence treatments. […] A dash (-) response means no test result.

foxtail, giant = assay: Test C preemergence; format: in vivo, Setaria faberii; conditions: for Plant response rating (scale of 0 to 100 where 0 is no effect and 100 is complete control): Foxtail, Giant, preemergence; for Foxtail, Giant plant response rating (0 to 100): Preemergence, visual rating after 13 to 15 d
Description: as §2

soybean = assay: Test C preemergence; format: in vivo, Glycine max; conditions: for Soybean plant response rating (0 to 100): Preemergence, visual rating after 13 to 15 d; for Plant response rating (scale of 0 to 100 where 0 is no effect and 100 is complete control): Soybean, preemergence, 250 g ai/ha
Description: as §2

barnyardgrass = assay: Test C preemergence; format: in vivo, Echinochloa crus-galli; conditions: for Plant response rating (scale of 0 to 100 where 0 is no effect and 100 is complete control): Barnyardgrass, preemergence; for Barnyardgrass plant response rating (0 to 100): Preemergence, visual rating after 13 to 15 d
Description: as §2

[1] = 16 g ai/ha, 0 is no effect, 100 is complete control

COc1nc(-c2ccc(Cl)cc2)nn1Cc1ccnc(C(F)(F)F)c1 [Compound 28]
Plant response rating (0 to 100), Chickweed (chickweed; [1]): 65 | Plant response rating: Chickweed (chickweed; 31 g ai/ha): 70 | Plant response rating: Chickweed (chickweed; 62 g ai/ha): 70 | Plant response rating: Chickweed (chickweed; 125 g ai/ha): 90 | Plant response rating (0 to 100), Deadnettle (deadnettle; [1]): 20 | Plant response rating: Deadnettle (deadnettle; 31 g ai/ha): 75 | Plant response rating: Deadnettle (deadnettle; 62 g ai/ha): 95 | Plant response rating: Deadnettle (deadnettle; 125 g ai/ha): 100 | Plant response rating: Bluegrass (bluegrass; 16 g ai/ha): 20 | Plant response rating: Bluegrass (bluegrass; 31 g ai/ha): 20 | Plant response rating: Bluegrass (bluegrass; 62 g ai/ha): 45 | Plant response rating: Bluegrass (bluegrass; 125 g ai/ha): 40 | Plant response rating: Canarygrass (canarygrass; 16 g ai/ha): 25 | Plant response rating: Canarygrass (canarygrass; 31 g ai/ha): 30 | Plant response rating: Canarygrass (canarygrass; 62 g ai/ha): 45 | Plant response rating: Canarygrass (canarygrass; 125 g ai/ha): 50 | Plant response rating: Field Poppy (field poppy; 16 g ai/ha): 65 | Plant response rating: Field Poppy (field poppy; 31 g ai/ha): 65 | Plant response rating: Field Poppy (field poppy; 62 g ai/ha): 65 | Plant response rating: Field Poppy (field poppy; 125 g ai/ha): 70 | Plant response rating: Field Violet (field violet; 16 g ai/ha): 75 | Plant response rating: Field Violet (field violet; 31 g ai/ha): 80 | Plant response rating: Field Violet (field violet; 62 g ai/ha): 100 | Plant response rating: Field Violet (field violet; 125 g ai/ha): 100 | Plant response rating: Oilseed Rape (oilseed rape; 16 g ai/ha): 65 | Plant response rating: Oilseed Rape (oilseed rape; 31 g ai/ha): 75 | Plant response rating: Oilseed Rape (oilseed rape; 62 g ai/ha): 75 | Plant response rating: Oilseed Rape (oilseed rape; 125 g ai/ha): 85 | Plant response rating: Chamomile (chamomile; 16 g ai/ha): 10 | Plant response rating: Chamomile (chamomile; 31 g ai/ha): 15 | Plant response rating: Chamomile (chamomile; 62 g ai/ha): 15 | Plant response rating: Chamomile (chamomile; 125 g ai/ha): 25 | Plant response rating: Buckwheat, Wild (buckwheat, wild; 16 g ai/ha): 60 | Plant response rating: Buckwheat, Wild (buckwheat, wild; 31 g ai/ha): 65 | Plant response rating: Buckwheat, Wild (buckwheat, wild; 62 g ai/ha): 75 | Plant response rating: Buckwheat, Wild (buckwheat, wild; 125 g ai/ha): 95 | Plant response rating: Mustard, Wild (wild mustard; 16 g ai/ha): 90 | Plant response rating: Mustard, Wild (wild mustard; 31 g ai/ha): 100 | Plant response rating: Mustard, Wild (wild mustard; 62 g ai/ha): 100 | Plant response rating: Mustard, Wild (wild mustard; 125 g ai/ha): 100 | Plant response rating: Radish, Wild (radish, wild; 16 g ai/ha): 85 | Plant response rating: Radish, Wild (radish, wild; 31 g ai/ha): 95 | Plant response rating: Radish, Wild (radish, wild; 62 g ai/ha): 95 | Plant response rating: Radish, Wild (radish, wild; 125 g ai/ha): 100

COc1nc(-c2ccc(F)cc2)nn1Cc1ccnc(C(F)(F)F)c1 [Compound 9, 4-[[3-(4-fluorophenyl)-5-methoxy-1H-1,2,4-triazol-1-yl]methyl]-2-(trifluoromethyl)pyridine]
Wheat plant response rating (0 to 100) (wheat (winter wheat); 31 g ai/ha): 0 | Wheat plant response rating (0 to 100) (wheat (winter wheat); 62 g ai/ha): 5 | Plant response rating (scale of 0 to 100 where 0 is no effect and 100 is complete control) (wheat (winter wheat)): 25 | Plant response rating (scale of 0 to 100 where 0 is no effect and 100 is complete control) (foxtail, giant; 125 g ai/ha): 100 | Plant response rating (scale of 0 to 100 where 0 is no effect and 100 is complete control) (foxtail, giant; 250 g ai/ha): 100 | Foxtail, Giant plant response rating (0 to 100) (foxtail, giant; 31 g ai/ha): 80 | Foxtail, Giant plant response rating (0 to 100) (foxtail, giant; 62 g ai/ha): 100 | Soybean plant response rating (0 to 100) (soybean; 31 g ai/ha): 0 | Soybean plant response rating (0 to 100) (soybean; 62 g ai/ha): 0 | Plant response rating (scale of 0 to 100 where 0 is no effect and 100 is complete control) (soybean): 40 | Plant response rating (scale of 0 to 100 where 0 is no effect and 100 is complete control) (barnyardgrass; 125 g ai/ha): 70 | Plant response rating (scale of 0 to 100 where 0 is no effect and 100 is complete control) (barnyardgrass; 250 g ai/ha): 85 | Barnyardgrass plant response rating (0 to 100) (barnyardgrass; 31 g ai/ha): 5 | Barnyardgrass plant response rating (0 to 100) (barnyardgrass; 62 g ai/ha): 35

CCCc1nc(-c2ccc(F)cc2)nn1Cc1ccnc(C(F)(F)F)c1 [Compound 6, 4-[[3-(4-fluorophenyl)-5-propyl-1H-1,2,4-triazol-1-yl]methyl]-2-(trifluoromethyl)pyridine]
Wheat plant response rating (0 to 100) (wheat (winter wheat); 31 g ai/ha): 0 | Wheat plant response rating (0 to 100) (wheat (winter wheat); 62 g ai/ha): 10 | Plant response rating (scale of 0 to 100 where 0 is no effect and 100 is complete control) (wheat (winter wheat)): 60 | Plant response rating (scale of 0 to 100 where 0 is no effect and 100 is complete control) (foxtail, giant; 125 g ai/ha): 100 | Plant response rating (scale of 0 to 100 where 0 is no effect and 100 is complete control) (foxtail, giant; 250 g ai/ha): 100 | Foxtail, Giant plant response rating (0 to 100) (foxtail, giant; 31 g ai/ha): 100 | Foxtail, Giant plant response rating (0 to 100) (foxtail, giant; 62 g ai/ha): 100 | Soybean plant response rating (0 to 100) (soybean; 31 g ai/ha): 5 | Soybean plant response rating (0 to 100) (soybean; 62 g ai/ha): 5 | Plant response rating (scale of 0 to 100 where 0 is no effect and 100 is complete control) (soybean): 70 | Plant response rating (scale of 0 to 100 where 0 is no effect and 100 is complete control) (barnyardgrass; 125 g ai/ha): 95 | Plant response rating (scale of 0 to 100 where 0 is no effect and 100 is complete control) (barnyardgrass; 250 g ai/ha): 98 | Barnyardgrass plant response rating (0 to 100) (barnyardgrass; 31 g ai/ha): 50 | Barnyardgrass plant response rating (0 to 100) (barnyardgrass; 62 g ai/ha): 75
